Measured values as given in ChEMBL document CHEMBL3862026, “Synthesis and biological evaluation of ranitidine analogs as multiple-target-directed cognitive enhancers for the treatment of Alzheimer's disease” (Bioorg Med Chem Lett, 2016).
pIC50: −log10 of the molar value.

Legend:
Acetylcholinesterase = Acetylcholinesterase (Electrophorus electricus, UniProt O42275); experiment: Inhibition of electric eel AChE using acetylthiocholine as substrate preincubated for 8 mins followed by substrate addition by Ellman's method
Acetylcholinesterase, sequence (O42275 whole entry): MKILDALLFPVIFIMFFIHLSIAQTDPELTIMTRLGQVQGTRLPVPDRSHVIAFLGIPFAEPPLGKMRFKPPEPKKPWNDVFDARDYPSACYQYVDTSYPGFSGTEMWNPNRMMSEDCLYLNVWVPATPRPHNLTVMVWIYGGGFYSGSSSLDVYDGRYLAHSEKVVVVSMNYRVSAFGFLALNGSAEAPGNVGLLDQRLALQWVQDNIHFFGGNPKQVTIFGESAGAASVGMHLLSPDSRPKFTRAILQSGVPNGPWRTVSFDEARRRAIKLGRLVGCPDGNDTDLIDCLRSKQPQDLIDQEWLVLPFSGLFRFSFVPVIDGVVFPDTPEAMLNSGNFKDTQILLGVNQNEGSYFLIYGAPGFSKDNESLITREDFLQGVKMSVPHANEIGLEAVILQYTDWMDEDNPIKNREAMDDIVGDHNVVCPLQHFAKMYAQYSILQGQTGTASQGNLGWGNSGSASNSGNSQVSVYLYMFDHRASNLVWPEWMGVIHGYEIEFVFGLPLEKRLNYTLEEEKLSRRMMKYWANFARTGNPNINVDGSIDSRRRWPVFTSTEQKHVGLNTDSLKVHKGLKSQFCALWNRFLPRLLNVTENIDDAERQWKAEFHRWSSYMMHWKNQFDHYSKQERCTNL

Cholinesterase = Cholinesterase (Equus caballus, UniProt P81908); experiment: Inhibition of equine serum BuChE using butyrylthiocholine as substrate preincubated for 8 mins followed by substrate addition by Ellman's method
Cholinesterase, sequence (P81908 whole entry): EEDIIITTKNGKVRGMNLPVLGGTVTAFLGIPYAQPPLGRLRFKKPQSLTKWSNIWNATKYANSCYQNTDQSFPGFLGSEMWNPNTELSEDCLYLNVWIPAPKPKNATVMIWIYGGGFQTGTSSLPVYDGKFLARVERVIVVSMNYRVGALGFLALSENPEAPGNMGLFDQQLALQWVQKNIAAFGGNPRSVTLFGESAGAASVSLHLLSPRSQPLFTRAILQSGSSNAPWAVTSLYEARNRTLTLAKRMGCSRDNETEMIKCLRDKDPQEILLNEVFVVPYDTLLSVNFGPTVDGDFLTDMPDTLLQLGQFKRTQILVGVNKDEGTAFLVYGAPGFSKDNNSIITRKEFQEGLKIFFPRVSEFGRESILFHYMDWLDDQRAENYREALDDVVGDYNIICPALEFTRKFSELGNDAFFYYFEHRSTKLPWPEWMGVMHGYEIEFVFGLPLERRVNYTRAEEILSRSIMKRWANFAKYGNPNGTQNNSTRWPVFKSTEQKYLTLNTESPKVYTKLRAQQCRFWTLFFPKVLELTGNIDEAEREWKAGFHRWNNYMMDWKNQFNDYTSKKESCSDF

[1] = molecular target: Muscarinic acetylcholine receptor M3 (Rattus norvegicus) (UniProt P08483); experiment: Displacement of [3H]QNB from muscarinic M3 receptor in rat brain homogenates at 1 uM after 60 mins relative to control; assay type: tissue-based
Muscarinic acetylcholine receptor M3 (Rattus norvegicus), sequence (P08483 whole entry, looked up): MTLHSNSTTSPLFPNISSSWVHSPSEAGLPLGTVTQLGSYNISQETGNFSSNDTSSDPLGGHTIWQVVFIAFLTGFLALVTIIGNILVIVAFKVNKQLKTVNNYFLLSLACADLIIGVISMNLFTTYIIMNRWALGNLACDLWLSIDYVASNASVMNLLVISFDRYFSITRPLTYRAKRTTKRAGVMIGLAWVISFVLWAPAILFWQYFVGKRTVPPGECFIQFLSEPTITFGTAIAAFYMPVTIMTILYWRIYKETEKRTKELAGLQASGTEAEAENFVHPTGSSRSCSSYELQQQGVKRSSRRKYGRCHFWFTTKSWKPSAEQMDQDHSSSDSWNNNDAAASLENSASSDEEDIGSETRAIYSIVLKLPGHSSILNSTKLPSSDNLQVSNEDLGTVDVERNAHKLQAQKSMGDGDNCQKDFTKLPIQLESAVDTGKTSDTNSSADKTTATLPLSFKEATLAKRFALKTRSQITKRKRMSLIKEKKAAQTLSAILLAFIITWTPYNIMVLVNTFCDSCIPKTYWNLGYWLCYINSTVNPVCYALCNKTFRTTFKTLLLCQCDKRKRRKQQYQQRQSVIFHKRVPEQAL

[2] = molecular target: T1, Muscarinic acetylcholine receptor M1 (Rattus norvegicus) (UniProt P08482); experiment: Displacement of [3H]QNB from muscarinic M1 receptor in rat brain homogenates at 1 uM after 60 mins relative to control; assay type: tissue-based
T1 sequence (whole entry): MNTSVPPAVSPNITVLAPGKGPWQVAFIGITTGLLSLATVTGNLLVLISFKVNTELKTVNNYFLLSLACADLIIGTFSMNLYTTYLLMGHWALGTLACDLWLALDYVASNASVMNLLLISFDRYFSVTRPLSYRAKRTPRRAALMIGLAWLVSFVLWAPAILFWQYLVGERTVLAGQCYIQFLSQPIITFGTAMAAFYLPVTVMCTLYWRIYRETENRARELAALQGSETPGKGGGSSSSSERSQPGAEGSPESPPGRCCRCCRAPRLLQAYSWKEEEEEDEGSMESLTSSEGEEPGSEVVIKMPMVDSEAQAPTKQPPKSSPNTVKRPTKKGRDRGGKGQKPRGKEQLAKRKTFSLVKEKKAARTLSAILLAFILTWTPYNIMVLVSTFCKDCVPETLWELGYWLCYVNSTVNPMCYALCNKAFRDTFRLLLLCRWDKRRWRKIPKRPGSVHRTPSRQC

[3] = molecular target: T2, Muscarinic acetylcholine receptor M4 (Rattus norvegicus) (UniProt P08485); experiment: Displacement of [3H]QNB from muscarinic M4 receptor in rat brain homogenates at 1 uM after 60 mins relative to control; assay type: tissue-based
T2 sequence (whole entry): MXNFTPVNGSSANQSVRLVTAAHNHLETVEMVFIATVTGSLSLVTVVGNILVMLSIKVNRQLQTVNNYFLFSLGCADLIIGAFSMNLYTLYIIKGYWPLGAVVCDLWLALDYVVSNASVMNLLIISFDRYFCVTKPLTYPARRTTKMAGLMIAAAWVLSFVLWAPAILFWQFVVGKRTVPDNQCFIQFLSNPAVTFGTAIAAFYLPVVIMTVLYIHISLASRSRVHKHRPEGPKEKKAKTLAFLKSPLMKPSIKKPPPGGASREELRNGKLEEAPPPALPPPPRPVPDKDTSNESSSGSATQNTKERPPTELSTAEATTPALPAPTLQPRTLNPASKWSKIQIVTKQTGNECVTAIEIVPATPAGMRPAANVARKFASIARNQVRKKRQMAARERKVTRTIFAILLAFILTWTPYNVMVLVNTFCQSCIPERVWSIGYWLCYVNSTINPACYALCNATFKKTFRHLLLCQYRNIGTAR

[4] = molecular target: T3, Muscarinic acetylcholine receptor M2 (Rattus norvegicus) (UniProt P10980); experiment: Displacement of [3H]QNB from muscarinic M2 receptor in rat brain homogenates at 1 uM after 60 mins relative to control; assay type: tissue-based
T3 sequence (whole entry): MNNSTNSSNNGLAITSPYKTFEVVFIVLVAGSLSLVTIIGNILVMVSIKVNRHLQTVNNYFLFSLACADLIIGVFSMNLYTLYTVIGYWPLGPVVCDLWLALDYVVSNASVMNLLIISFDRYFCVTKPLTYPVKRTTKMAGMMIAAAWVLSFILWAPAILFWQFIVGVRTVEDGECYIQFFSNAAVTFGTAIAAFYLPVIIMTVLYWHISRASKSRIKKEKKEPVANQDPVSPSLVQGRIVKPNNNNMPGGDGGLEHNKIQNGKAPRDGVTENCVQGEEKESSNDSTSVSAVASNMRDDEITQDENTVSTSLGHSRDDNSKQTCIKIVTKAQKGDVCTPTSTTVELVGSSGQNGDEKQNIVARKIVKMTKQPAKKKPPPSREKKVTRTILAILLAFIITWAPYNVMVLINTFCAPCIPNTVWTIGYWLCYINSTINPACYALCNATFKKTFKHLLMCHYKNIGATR

Compound | pIC50 (Acetylcholinesterase) | pIC50 (Cholinesterase) | inhibition [1] [%] | inhibition [2] [%] | inhibition [3] [%] | inhibition [4] [%]
CN(C)Cc1ccc(CSCCN2C(=O)c3cccc4cc([N+](=O)[O-])cc(c34)C2=O)o1 | 6.82 | 5.10 | – | – | – | –
CN(C)Cc1ccc(CSCCN2C(=O)c3ccccc3C2=O)o1 | 5.45 | 4.84 | – | – | – | –
CN(C)Cc1ccc(CSCCNc2ccc(Cl)nn2)o1 | 4.98 | < 4.30 | 2.3 | 25.2 | 7.7 | 9.8
Cc1cccc(Nc2ccccc2C(=O)NCCSCc2ccc(CN(C)C)o2)c1C | < 4.30 | < 4.30 | 69.6 | 77.4 | 33.8 | 50.8
CN(C)Cc1ccc(CSCCNc2ncccc2C#N)o1 | 5.27 | 5.08 | – | – | – | –
CN(C)Cc1ccc(CSCCNc2ncccn2)o1 | 4.79 | 5.12 | 24.3 | 56.2 | 24.9 | 50.8
CC1CC(=O)N(CCSCc2ccc(CN(C)C)o2)C1=O (stereo not given) | 4.48 | < 4.30 | – | – | – | –
Cc1ccc(S(=O)(=O)NCCSCc2ccc(CN(C)C)o2)cc1 | < 4.30 | 4.33 | – | – | – | –
CN(C)Cc1ccc(CSCCNc2nnc(-c3ccccc3)cc2[N+](=O)[O-])o1 | 6.59 | 5.35 | 38 | 40 | 16 | 34
Cc1c(-c2ccccc2)nnc(NCCSCc2ccc(CN(C)C)o2)c1[N+](=O)[O-] | 6.80 | 5.43 | 63 | 84 | 58 | 72
CN(C)Cc1ccc(CSCCN2C(=O)c3cccc4cccc(c34)C2=O)o1 | 5.90 | 5.14 | – | – | – | –
CN(C)Cc1ccc(CSCCNC(=O)c2ccccc2-c2ccccc2C(=O)O)o1 | < 4.30 | < 4.30 | – | – | – | –
CN(C)Cc1ccc(CSCCN/C(=C/[N+](=O)[O-])N2CCCCC2)o1 | 5.39 | 4.67 | 41.5 | 72.1 | 47.7 | 54
CN(C)Cc1ccc(CSCCNc2nc(N)no2)o1 | < 4.30 | < 4.30 | 49.8 | 69.9 | 42.7 | 72.8
Cc1cc([N+](=O)[O-])c(NCCSCc2ccc(CN(C)C)o2)nn1 | 6.17 | 4.55 | 46 | 79 | 57 | 78
CN(C)Cc1ccc(CSCCNc2nnc(-c3ccccc3)c(-c3ccccc3)c2[N+](=O)[O-])o1 | 6.72 | 5.15 | 73 | 76 | 48 | 51
CN(C)Cc1ccc(CSCCNc2nnc(-c3cccs3)c(-c3cccs3)c2[N+](=O)[O-])o1 | 6.46 | 5.64 | – | – | – | –
Cc1nnc(NCCSCc2ccc(CN(C)C)o2)c([N+](=O)[O-])c1-c1ccccc1 | 6.14 | – | 52 | 60 | 37 | 40
CN(C)Cc1ccc(CSCCNc2nncc(-c3ccccc3)c2[N+](=O)[O-])o1 | 6.34 | 4.64 | 27 | 40 | 18 | 37
CCc1nnc(NCCSCc2ccc(CN(C)C)o2)c([N+](=O)[O-])c1CC | 5.60 | 4.73 | – | – | – | –
CN(C)Cc1ccc(CSCCNc2nnccc2[N+](=O)[O-])o1 | 6.33 | – | 32 | 80 | 74 | 97
Cc1nnc(NCCSCc2ccc(CN(C)C)o2)c([N+](=O)[O-])c1C | 5.57 | – | 48 | 74 | 67 | 63
CN(C)Cc1ccc(CSCCNc2nc(N)n[nH]2)o1 | < 4.30 | < 4.30 | 30.1 | 57.4 | 43.6 | 71.3
C=C1C(C)=NN/C(=C\[N+](=O)[O-])N1CCSCc1ccc(CN(C)C)o1 | 5.78 | 5.15 | 90.4 | 88.8 | 92.1 | 81
CN(C)Cc1ccc(CSCCNC(=O)Cc2ccccc2Nc2c(Cl)cccc2Cl)o1 | – | 5.12 | 43.5 | 60.1 | 47.3 | 27.4
CS/C(=N\S(=O)(=O)c1ccc(C)cc1)NCCSCc1ccc(CN(C)C)o1 | < 4.30 | < 4.30 | 18.5 | 37.5 | 4.2 | –
CN(C)Cc1ccc(CSCCN2C(=O)c3ccc([N+](=O)[O-])cc3C2=O)o1 | 4.34 | < 4.30 | – | – | – | –
CN(C)Cc1ccc(CSCCN2C(=O)CCC2=O)o1 | 4.93 | < 4.30 | – | – | – | –
CN(C)Cc1ccc(CSCCN/C(=C/[N+](=O)[O-])N/N=C/c2ccccc2)o1 | 5.93 | 5.53 | 66.6 | 88.5 | 62.3 | 67
